Laboratory results: patent publication US20250026759A1 (Merck Sharp & Dohme LLC, priority 2023, published 2025)

System: PBMCs infected with VSV-G pseudotyped HIV virus (VSV-G/pNLG1-P2A-ΔEnv)
Experiment: cells
Assay type: cell-based, human
Details: Homo sapiens, PBMC, read-out: TACK EC50

SMILES	EC50 [nM]
CN1CC(=O)N(Cc2cc3c(cc2F)[C@@](C#CC2CC2)(C(F)(F)F)NC(=O)N3)C1=O [Example 9, (S)-3-((4-(cyclopropylethynyl)-6-fluoro-2-oxo-4-(trifluoromethyl)-1,2,3,4-tetrahydroquinazolin-7-yl)methyl)-1-methylimidazolidine-2,4-dione]	74.6
COc1ccc(-c2ccn(Cc3cc4c(cc3F)[C@@](C#CC3CC3)(C(C)(F)F)NC(=O)N4)n2)cc1 [Example 97, (S)-4-(cyclopropylethynyl)-4-(1,1-difluoroethyl)-6-fluoro-7-((3-(4-methoxyphenyl)-1H-pyrazol-1-yl)methyl)-3,4-dihydroquinazolin-2(1H)-one]	45.3
